Columns and labels:
[1] = neat forms; 1 month at 25°C/60%RH and at 40°C/75%RH; cited from earlier work
[2] = Polymorphic analysis of API by XRD before and after micronisation (jet milling); format: physicochemical
From the text: For example, two from five batches of micronized API have shown the contamination of form 2 with form 3 and dihydrate form A.

Row | Compound | polymorphic stability on storage [1] | polymorphic form of API after micronisation (XRD) ([2]; listed as polymorphic form 2) | polymorphic form of API after micronisation (XRD) ([2]; listed as Bilastine form 3)
1 | CCOCCn1c(C2CCN(CCc3ccc(C(C)(C)C(=O)O)cc3)CC2)nc2ccccc21 [Alpha, 2-[4-(2-(4-(1-(2-ethoxyethyl)-1H-benzimidazol-2-yl)piperidin-1-yl)ethyl)phenyl]-2-methylpropionic acid] | stable on storage | – | –
2 | CCOCCn1c(C2CCN(CCc3ccc(C(C)(C)C(=O)O)cc3)CC2)nc2ccccc21 [Eta, 2-[4-(2-(4-(1-(2-ethoxyethyl)-1H-benzimidazol-2-yl)piperidin-1-yl)ethyl)phenyl]-2-methylpropionic acid] | stable on storage | – | –
3 | CCOCCn1c(C2CCN(CCc3ccc(C(C)(C)C(=O)O)cc3)CC2)nc2ccccc21 [form 1, 2-[4-(2-(4-(1-(2-ethoxyethyl)-1H-benzimidazol-2-yl)piperidin-1-yl)ethyl)phenyl]-2-methylpropionic acid] | stable on storage | – | –
4 | CCOCCn1c(C2CCN(CCc3ccc(C(C)(C)C(=O)O)cc3)CC2)nc2ccccc21 [form 2, 2-[4-(2-(4-(1-(2-ethoxyethyl)-1H-benzimidazol-2-yl)piperidin-1-yl)ethyl)phenyl]-2-methylpropionic acid] | stable on storage | presence of form 3 and dihydrate form A as polymorphic impurities | –
5 | CCOCCn1c(C2CCN(CCc3ccc(C(C)(C)C(=O)O)cc3)CC2)nc2ccccc21 [form 3, 2-[4-(2-(4-(1-(2-ethoxyethyl)-1H-benzimidazol-2-yl)piperidin-1-yl)ethyl)phenyl]-2-methylpropionic acid] | converted partially into the form 1 | – | remains in the polymorphic form 3 without changes
